The values below come from patent EP1889615A2, “Formulations for oral administration with a health promoting effect on the osteoarticular and muscleskeleton apparatus” (ROTTAPHARM S.P.A., priority 2006, dated 2008).

Molecules are shown by their SMILES.

The test system of the assay is IL-10. Kind of assay: Human blood: LPS stimulated production (expression) of IL-10. Format: cell-based. The procedure: Venous blood has been collected from healthy volunteers and treated with 0.38% Na citrate in order to prevent coagulation. 200 µl samples have been stimulated with 1 µg/ml of LPS for 24 hours at 37°C [Hartel et al. 2004], in the presence of the test products. The cytokines released into the plasma have been analysed using a multiple system for cytokines (Bio-Plex, Bio-Rad Laboratories, Milan, Italy) allowing the simultaneous determination of IL-1, TNFα and IL-10.

As for `N[C@H]1C(O)O[C@H](CO)[C@@H](O)[C@@H]1O.N[C@H]1C(O)O[C@H](CO)[C@@H](O)[C@@H]1O.O=S(=O)(O)O.[Cl-].[Cl-].[Na+].[Na+]` (stereo partly shown) [CGS, Crystalline Glucosamine Sulphate], the IL-10 reads like this: (30 µM (Man, ASS as mangostin; ASS 30 = Man 30 + CGS 300)) 0.25 ng/mL; (100 µM) 0.26 ng/mL; (300 µM) 0.27 ng/mL. Also, the “%Diff. vs control” value by setting is: (IL-10 (increase positive), 30 µM (Man, ASS as mangostin; ASS 30 = Man 30 + CGS 300)) -3.5%; (IL-10, 100 µM) 1.6%; (IL-10, 300 µM) 6.3%. For the same molecule, where the note is “IL-10, concentrations tested 30, 100 and 300 µM”, the “stimulatory or inhibitory activity” value is recorded as “no significant stimulatory or inhibitory activity”.
